Assays:
[1] = target: T1, NOD2 (Homo sapiens, UniProt Q9HC29); test: NOD2-HEK-Blue NF-κB reporter cell activation assay (NOD2-expressing HEK-293T cells); type: cell-based; settings: for EC50: calculated, three-parameter dose-response nonlinear regression, read-out: pEC50 (μM), dose-dependent activation of NOD2-expressing HEK-293T cells (converted)
T1 construct: host or cells: HEK-293T-derived HEK-Blue NF-kB/SEAP reporter cells
Procedure, shortened: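 HEK-Blue NOD2 reporter cells in HEK-Blue detection medium were exposed to compounds for 8-10 h at 37° C. (or 16 h in complete DMEM, then QUANTI-Blue for 2-4 h). Secreted alkaline phosphatase read by absorbance at 630 nm; pEC50 from three-parameter dose-response nonlinear regression.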

[2] = tested on: intratumoral immune cells; test: Single cell transcriptomic profiling of intratumoral immune cells; type: in vivo, mice; settings: tumors treated with anti-PD-L1 and compound
Excerpt: N-arylpyrazole NOD2 agonist enhances intratumoral immune responses in vivo. The anti-tumor mechanism of action of the N-arylpyrazole NOD2 agonist in vivo was then further characterized. Infiltrating leukocytes from tumors treated with anti-PD-L1 and either TT030 or TT030-ent were harvested via cell sorting and subjected to single cell transcriptomic profiling (FIG. 4A and FIG. 8). After assignment of cell clusters using well-defined markers, the overall composition of intratumoral immune cells were examined by comparing the relative proportions of each cell cluster. […] In fact, overall expression of both Ifng and Gzmb were elevated in the TT030 sample compared to the enantiomer control (FIG. 9B), indicating heighted CD8^+ T cell activation and effector function. […] To better characterize changes to downstream signaling caused by TT030, differential gene expression and gene set enrichment analyses were performed.
FIG. 4(A-E). NOD2 agonist TT030 remodels intratumoral immune cell composition and elicits broad inflammatory signaling. A, Uniform manifold approximation and projection (UMAP) reduction of single intratumoral immune cells harvested from α-PD-L1 and TT030- and TT030-ent-treated tumors. B-C, Heatmap and quantification of the relative composition of intratumoral immune cell types divided by clusters. D, Quantification of the number of clusters that were enriched for individual Molecular Signature Database (MSigDB) hallmark gene sets. E, Bubble plot for enrichment of curated REACTOME gene sets involving NF-κB or interleukin 1 across cell clusters. For relative composition, absolute cell counts were analyzed by Pearson's chi-square test for count data with Holm's correction for multiple comparisons; exact P values are given. […] NOD activation assays were analyzed using a one-way ANOVA with Dunnett's multiple comparisons test compared to the DMSO control.
FIG. 9(A-B). […] QQ plots were analyzed using a two-sided Wilcoxon rank-sum test; exact P values are given.

T1 sequence (Q9HC29 whole entry): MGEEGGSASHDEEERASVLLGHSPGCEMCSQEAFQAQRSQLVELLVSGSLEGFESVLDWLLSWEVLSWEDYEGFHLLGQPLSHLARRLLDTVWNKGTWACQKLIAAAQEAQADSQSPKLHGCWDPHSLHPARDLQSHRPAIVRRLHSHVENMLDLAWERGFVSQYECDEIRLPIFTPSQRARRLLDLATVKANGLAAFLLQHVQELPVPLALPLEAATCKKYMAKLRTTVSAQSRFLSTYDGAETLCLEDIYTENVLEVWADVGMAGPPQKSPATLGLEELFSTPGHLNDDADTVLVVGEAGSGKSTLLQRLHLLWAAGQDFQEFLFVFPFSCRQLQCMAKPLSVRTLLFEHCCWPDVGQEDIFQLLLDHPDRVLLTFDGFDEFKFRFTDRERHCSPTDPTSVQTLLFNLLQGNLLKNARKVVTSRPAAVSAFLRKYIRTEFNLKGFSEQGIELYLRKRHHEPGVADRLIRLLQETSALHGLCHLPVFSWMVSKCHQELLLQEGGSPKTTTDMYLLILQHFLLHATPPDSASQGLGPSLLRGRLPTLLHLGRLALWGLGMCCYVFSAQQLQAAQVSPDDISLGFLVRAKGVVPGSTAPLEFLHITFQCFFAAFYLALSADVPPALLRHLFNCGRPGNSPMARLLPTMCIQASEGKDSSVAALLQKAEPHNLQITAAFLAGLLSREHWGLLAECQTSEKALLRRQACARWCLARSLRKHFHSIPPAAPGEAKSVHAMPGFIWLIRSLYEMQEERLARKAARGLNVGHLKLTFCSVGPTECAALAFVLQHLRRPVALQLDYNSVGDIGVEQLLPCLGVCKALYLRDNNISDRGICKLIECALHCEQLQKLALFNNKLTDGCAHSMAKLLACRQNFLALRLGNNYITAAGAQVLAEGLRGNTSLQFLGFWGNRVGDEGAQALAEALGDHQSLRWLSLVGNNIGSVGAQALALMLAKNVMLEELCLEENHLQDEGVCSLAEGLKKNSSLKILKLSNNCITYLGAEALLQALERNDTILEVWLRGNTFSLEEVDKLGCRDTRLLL

Row | SMILES | EC50 [1] | Inflammatory, immune activation and metabolic pathways (IFNα, IFNγ response, NF-κB signaling), gene set enrichment [2] | Amount of T cell cluster expressing Cd8a, Ifng, Gzmb and Mki67 ([2]; vs. TT030-ent) | Overall expression of Ifng and Gzmb ([2]; vs. enantiomer control) | lipophilic ligand efficiency (LLE) ([1]; calculated pEC50 vs. clogP, FIG. 2G)
1 | CC(=O)N[C@H]1C(O)O[C@H](CO)[C@@H](O)[C@@H]1O[C@H](C)C(=O)N[C@@H](C)C(=O)N[C@H](CCC(=O)O)C(N)=O (stereo partly drawn) [MDP, (4R)-4-((2S)-2-((2R)-2-(((3R,4R,5S,6R)-3-acetamido-2,5-dihydroxy-6-(hydroxymethyl)tetrahydro-2H-pyran-4-yl)oxy)propanamido)propanamido)-5-amino-5-oxopentanoic acid, reference compound] | 0.126 µM |  |  |  | 
2 | CCOC(=O)CC[C@@H](NC(=O)[C@@H](NC(=O)c1c(C)nn(-c2cc[nH]c(=O)c2)c1C)C(C)C)C(=O)OCC [TT030, Diethyl (3,5-dimethyl-1-(2-oxo-1,2-dihydropyridin-4-yl)-1H-pyrazole-4-carbonyl)-L-valyl-D-glutamate] | 0.251 µM | upregulated | significant increase | elevated | 6.81
